Results as given in ChEMBL document CHEMBL5465560, “Selectivity Literature for EUbOPEN Chemogenomic Library” (2024).

Legend:
[1] = biological target: TRAF2 and NCK-interacting protein kinase (Homo sapiens) (UniProt Q9UKE5); assay: Selectivity interaction (LanthaScreen Eu Kinase Binding Assay) EUB0001632a TNIK; settings: at 10 µM
[2] = biological target: Calcium/calmodulin-dependent protein kinase type 1 (Homo sapiens) (UniProt Q14012); assay: Selectivity interaction (KinomeScan (DiscoverX)) EUB0000607a CAMK1; settings: at 10 µM
[3] = biological target: Tyrosine-protein kinase Fes/Fps (Homo sapiens) (UniProt P07332); settings: at 10 µM
[4] = biological target: Calcium/calmodulin-dependent protein kinase kinase 2 (Homo sapiens) (UniProt Q96RR4); assay: Selectivity interaction (ActivX KiNativ screen (kinase selectivity in THP-1 cell lysates)) EUB0000639a CAMKK2; format: subcellular; settings: lysate, at 0.04 µM
[5] = biological target: Proto-oncogene tyrosine-protein kinase receptor Ret (Homo sapiens, UniProt P07949); assay: Selectivity interaction (Kinase panel (Invitrogen)) EUB0000639a RET; settings: at 200 nM
[6] = biological target: Tyrosine-protein kinase ABL2 (Homo sapiens, UniProt P42684); assay: Selectivity interaction (ActivX KiNativ screen (kinase selectivity in THP-1 cell lysates)) EUB0000639a ABL2; format: subcellular; settings: lysate
[7] = biological target: 5'-AMP-activated protein kinase catalytic subunit alpha-1 (Homo sapiens, UniProt Q13131); assay: Selectivity interaction (ActivX KiNativ screen (kinase selectivity in THP-1 cell lysates)) EUB0000639a PRKAA1; format: subcellular; settings: lysate, at 0.01 µM
[8] = biological target: T1, Dual specificity protein kinase TTK (Homo sapiens) (UniProt P33981); assay: Selectivity interaction (Kinase panel (DSF assay)) EUB0001559a TTK
T1 sequence (whole entry): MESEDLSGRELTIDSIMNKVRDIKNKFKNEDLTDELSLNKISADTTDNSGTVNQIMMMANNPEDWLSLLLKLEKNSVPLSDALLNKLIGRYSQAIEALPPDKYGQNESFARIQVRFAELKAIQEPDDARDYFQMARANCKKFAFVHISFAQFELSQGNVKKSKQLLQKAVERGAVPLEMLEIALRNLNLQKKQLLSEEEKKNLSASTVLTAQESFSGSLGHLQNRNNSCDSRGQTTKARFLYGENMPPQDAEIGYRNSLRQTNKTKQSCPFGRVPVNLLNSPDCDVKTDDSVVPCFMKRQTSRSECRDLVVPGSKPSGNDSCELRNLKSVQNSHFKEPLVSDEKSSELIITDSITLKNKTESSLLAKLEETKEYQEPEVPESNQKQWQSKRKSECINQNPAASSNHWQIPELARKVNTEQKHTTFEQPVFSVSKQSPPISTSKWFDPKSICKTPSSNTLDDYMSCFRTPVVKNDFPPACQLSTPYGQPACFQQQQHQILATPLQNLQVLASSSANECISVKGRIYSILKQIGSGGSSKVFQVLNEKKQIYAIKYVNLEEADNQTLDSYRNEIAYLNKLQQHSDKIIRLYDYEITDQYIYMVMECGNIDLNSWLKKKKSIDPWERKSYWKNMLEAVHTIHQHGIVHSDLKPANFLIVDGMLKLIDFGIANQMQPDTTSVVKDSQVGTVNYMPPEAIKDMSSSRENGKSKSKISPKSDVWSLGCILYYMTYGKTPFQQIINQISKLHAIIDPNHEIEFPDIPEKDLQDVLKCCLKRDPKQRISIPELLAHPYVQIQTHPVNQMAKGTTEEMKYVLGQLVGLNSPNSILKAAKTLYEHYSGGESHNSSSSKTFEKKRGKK

[9] = biological target: Serine/threonine-protein kinase PLK3 (Homo sapiens, UniProt Q9H4B4); assay: Selectivity interaction (KinomeScan (DiscoverX)) EUB0001049a PLK3; settings: at 1 µM
[10] = biological target: T2, Cytoplasmic tyrosine-protein kinase BMX (Homo sapiens) (UniProt P51813); assay: Selectivity interaction (Kinase panel (DSF assay)) EUB0001558a BMX
T2 sequence (whole entry): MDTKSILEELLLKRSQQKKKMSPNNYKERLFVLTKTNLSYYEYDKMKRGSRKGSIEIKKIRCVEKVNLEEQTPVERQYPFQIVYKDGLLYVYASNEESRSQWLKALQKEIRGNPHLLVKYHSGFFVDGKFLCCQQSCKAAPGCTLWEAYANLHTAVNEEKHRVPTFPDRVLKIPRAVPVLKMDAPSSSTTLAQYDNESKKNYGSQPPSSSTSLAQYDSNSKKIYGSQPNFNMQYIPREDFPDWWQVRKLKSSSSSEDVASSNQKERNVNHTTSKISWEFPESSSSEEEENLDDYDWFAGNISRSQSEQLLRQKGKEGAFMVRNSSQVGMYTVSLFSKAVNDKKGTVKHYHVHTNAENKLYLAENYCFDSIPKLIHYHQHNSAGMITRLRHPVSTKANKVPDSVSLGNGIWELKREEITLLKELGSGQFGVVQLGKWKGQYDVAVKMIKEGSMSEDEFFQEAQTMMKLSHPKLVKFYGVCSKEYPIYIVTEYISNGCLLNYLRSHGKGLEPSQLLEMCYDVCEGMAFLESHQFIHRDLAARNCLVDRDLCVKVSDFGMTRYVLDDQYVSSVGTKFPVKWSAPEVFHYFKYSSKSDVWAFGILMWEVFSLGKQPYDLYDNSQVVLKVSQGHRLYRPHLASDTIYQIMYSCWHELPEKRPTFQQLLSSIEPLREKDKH

[11] = biological target: NT-3 growth factor receptor (Homo sapiens, UniProt Q16288); assay: Selectivity interaction (KinomeScan (DiscoverX)) EUB0000229b NTRK3; settings: at 10 µM
[12] = biological target: Macrophage colony-stimulating factor 1 receptor (Homo sapiens) (UniProt P07333); assay: Selectivity interaction (Kinase panel (Carna Biosciences)) EUB0001542aTs CSF1R; settings: at 1 µM
[13] = biological target: Cyclin-dependent kinase 13 (Homo sapiens, UniProt Q14004); assay: Selectivity interaction (KinomeScan (DiscoverX)) EUB0000618a CDK13; settings: at 10 µM
[14] = biological target: Ribosomal protein S6 kinase alpha-4 (Homo sapiens) (UniProt O75676); assay: Selectivity interaction (KinomeScan (DiscoverX)) EUB0000618a RPS6KA4; settings: at 10 µM
[15] = biological target: Insulin-like growth factor 1 receptor (Homo sapiens, UniProt P08069); assay: Selectivity interaction (KinomeScan (DiscoverX)) EUB0000618a IGF1R; settings: at 10 µM
[16] = biological target: Casein kinase I isoform alpha (Homo sapiens, UniProt P48729); assay: Selectivity interaction (ActivX KiNativ screen (ex vivo kinase selectivity in human PBMCs)) EUB0001619a CSNK1A1; format: cell-based; settings: PBMC, at 1 µM

Tyrosine-protein kinase ABL2, sequence (P42684 whole entry): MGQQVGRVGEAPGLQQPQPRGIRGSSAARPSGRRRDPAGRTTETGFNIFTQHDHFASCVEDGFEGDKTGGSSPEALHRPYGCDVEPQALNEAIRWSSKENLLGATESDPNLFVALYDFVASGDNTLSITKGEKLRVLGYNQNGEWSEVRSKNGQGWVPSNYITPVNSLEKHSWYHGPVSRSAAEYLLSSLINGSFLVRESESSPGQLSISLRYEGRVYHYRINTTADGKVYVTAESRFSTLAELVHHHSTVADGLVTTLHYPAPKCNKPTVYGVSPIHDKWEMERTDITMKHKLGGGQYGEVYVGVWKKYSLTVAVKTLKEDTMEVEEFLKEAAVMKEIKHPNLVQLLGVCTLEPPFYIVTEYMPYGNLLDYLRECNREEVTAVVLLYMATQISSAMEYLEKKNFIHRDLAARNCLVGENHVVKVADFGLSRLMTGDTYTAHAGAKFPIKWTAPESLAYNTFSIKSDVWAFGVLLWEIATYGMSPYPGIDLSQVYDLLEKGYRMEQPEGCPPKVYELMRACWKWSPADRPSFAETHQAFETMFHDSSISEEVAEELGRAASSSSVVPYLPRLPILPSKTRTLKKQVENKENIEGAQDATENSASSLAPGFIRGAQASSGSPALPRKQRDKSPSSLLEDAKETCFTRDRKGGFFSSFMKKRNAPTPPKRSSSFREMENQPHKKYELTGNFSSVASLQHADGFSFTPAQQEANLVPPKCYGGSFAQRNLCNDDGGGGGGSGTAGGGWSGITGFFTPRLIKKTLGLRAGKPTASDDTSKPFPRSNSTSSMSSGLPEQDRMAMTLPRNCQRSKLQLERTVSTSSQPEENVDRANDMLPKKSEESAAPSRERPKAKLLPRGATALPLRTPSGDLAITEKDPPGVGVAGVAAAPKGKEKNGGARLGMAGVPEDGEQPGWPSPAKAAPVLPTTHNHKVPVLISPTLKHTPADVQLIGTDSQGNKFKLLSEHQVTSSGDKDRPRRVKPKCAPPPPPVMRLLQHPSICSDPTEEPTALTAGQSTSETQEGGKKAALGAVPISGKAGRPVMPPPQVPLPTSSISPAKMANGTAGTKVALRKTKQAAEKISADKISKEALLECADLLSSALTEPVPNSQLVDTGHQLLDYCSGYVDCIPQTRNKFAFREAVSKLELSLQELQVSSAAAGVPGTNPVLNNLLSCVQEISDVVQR
Serine/threonine-protein kinase PLK3, sequence (Q9H4B4 whole entry, looked up): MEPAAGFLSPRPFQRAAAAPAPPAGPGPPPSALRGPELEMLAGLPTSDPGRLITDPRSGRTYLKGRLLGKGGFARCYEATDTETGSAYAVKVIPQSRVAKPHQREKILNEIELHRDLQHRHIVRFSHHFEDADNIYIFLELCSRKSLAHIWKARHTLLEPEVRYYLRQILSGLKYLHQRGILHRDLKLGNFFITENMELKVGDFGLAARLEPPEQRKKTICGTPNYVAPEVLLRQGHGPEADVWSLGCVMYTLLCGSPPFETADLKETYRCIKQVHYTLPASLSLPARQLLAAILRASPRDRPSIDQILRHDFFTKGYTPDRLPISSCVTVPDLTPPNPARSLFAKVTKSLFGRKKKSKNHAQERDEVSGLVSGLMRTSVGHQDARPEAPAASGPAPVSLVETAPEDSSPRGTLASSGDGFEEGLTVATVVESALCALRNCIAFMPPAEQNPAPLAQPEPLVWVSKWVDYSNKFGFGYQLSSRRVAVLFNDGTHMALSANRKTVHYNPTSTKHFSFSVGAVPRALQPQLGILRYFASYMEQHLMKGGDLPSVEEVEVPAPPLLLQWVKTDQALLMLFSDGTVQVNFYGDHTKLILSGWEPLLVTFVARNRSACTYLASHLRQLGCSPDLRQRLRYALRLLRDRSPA
Tyrosine-protein kinase Fes/Fps (Homo sapiens), sequence (P07332 whole entry): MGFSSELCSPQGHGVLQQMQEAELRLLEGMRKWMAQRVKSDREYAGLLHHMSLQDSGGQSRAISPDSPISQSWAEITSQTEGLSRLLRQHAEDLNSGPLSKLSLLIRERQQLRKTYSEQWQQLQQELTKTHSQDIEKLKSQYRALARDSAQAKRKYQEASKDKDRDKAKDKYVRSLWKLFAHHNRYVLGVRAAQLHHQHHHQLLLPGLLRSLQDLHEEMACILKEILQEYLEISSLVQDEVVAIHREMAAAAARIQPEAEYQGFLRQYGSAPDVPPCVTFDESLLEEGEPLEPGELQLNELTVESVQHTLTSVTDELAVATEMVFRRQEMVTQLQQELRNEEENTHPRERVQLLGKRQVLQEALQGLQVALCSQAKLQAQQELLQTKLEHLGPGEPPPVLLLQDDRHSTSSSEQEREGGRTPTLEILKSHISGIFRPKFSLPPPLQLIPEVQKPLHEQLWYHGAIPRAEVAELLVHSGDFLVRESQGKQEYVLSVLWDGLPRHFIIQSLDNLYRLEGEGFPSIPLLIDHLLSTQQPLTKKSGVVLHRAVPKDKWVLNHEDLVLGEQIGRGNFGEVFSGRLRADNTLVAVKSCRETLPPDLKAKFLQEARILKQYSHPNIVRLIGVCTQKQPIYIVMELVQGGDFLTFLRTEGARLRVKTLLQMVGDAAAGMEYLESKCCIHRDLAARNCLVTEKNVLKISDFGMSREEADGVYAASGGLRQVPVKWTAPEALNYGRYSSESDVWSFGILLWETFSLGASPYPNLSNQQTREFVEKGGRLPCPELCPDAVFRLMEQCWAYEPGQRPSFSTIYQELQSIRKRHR
Proto-oncogene tyrosine-protein kinase receptor Ret, sequence (P07949 whole entry): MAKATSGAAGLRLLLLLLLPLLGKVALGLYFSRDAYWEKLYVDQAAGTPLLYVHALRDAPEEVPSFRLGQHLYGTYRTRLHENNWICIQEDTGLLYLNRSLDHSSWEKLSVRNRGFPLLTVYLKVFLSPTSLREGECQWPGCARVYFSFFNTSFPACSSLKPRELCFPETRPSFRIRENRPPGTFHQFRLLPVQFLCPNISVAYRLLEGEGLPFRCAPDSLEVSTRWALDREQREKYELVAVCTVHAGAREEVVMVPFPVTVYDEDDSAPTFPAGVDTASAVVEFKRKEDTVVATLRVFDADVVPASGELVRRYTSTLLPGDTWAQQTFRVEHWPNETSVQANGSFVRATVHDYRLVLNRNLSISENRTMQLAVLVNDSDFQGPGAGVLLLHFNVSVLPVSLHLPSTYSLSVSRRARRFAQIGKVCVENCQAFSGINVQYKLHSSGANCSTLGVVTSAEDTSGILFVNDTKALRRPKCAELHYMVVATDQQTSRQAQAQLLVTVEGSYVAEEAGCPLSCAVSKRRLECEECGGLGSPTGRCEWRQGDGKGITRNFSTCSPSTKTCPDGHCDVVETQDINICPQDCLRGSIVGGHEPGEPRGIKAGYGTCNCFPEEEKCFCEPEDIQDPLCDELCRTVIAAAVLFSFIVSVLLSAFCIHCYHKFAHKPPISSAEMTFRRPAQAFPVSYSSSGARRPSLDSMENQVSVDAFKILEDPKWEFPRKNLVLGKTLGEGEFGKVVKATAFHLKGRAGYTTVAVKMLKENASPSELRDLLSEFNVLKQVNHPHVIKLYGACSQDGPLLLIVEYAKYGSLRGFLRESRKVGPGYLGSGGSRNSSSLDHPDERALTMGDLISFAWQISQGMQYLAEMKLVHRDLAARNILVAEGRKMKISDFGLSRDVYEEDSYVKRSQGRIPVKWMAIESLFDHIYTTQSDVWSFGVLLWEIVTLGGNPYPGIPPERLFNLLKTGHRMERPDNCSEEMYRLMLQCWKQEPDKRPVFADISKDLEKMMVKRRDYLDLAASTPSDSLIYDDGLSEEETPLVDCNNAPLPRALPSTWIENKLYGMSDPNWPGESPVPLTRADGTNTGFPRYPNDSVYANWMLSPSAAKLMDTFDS
NT-3 growth factor receptor, sequence (Q16288 32-839 limits assumed): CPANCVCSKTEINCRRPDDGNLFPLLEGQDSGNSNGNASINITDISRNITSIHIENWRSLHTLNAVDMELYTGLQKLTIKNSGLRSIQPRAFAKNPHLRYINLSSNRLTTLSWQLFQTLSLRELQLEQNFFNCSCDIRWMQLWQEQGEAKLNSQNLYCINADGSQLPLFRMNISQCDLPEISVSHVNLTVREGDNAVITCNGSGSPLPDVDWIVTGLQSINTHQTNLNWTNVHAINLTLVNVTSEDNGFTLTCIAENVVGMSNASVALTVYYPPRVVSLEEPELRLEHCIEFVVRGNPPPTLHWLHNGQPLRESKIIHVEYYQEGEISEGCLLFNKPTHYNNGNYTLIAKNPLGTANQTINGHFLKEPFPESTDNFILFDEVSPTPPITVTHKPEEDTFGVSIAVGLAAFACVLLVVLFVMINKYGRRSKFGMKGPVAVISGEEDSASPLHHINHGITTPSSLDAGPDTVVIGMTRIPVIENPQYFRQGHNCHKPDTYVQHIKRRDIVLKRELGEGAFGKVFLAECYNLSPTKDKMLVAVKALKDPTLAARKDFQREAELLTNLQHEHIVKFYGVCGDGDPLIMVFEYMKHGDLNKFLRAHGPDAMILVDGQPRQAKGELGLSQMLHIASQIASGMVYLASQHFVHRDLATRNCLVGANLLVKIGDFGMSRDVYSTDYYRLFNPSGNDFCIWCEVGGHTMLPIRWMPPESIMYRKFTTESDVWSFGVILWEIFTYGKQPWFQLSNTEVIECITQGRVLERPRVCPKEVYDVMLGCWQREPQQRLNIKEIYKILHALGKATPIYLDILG
Calcium/calmodulin-dependent protein kinase type 1 (Homo sapiens), sequence (Q14012 whole entry, looked up): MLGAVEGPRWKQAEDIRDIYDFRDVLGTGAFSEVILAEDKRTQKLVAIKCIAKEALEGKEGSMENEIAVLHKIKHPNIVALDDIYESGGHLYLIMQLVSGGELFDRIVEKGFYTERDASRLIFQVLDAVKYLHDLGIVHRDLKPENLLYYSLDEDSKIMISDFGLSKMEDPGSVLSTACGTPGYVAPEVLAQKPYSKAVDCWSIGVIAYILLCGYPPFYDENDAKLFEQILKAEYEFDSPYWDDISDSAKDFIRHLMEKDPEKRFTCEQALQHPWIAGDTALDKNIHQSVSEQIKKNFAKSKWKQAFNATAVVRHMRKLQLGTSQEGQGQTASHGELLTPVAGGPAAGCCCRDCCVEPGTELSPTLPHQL

Compound Cn1cc(-n2cnc3c(NCc4nc5cc(Cl)c(Cl)cc5[nH]4)nc(N4CCOCC4)nc32)cn1 has a % of inhibition [1] of -13.9%.
CNC(=O)Nc1ccc(-c2nc(N3CC4CCC(C3)O4)c3cnn(C4CCC5(CC4)OCCO5)c3n2)cc1 was tested, and the % of control [2] was 93%.
Work on CCN(CC)CCCCNc1ncc2cc(-c3cc(OC)cc(OC)c3)c(NC(=O)NC(C)(C)C)nc2n1 yielded a % of control [3] of 100%.
With CC[C@@H]1[C@H](F)C(=O)N[C@@H]1COc1nccc2cc(C(N)=O)c(OC)cc12 [ZIMLOVISERTIB] the % of inhibition [4] was -13%, the % of inhibition [5] was 58.9% and the % of inhibition ([6]; at 0.01 µM) was 52%. It also gave a % of inhibition ([6]; at 0.04 µM) of -16%, a % of inhibition ([6]; at 0.2 µM) of -25.4% and a % of inhibition ([6]; at 1 µM) of -5.3%. It also gave a % of inhibition ([6]; at 5 µM) of -19.6% and a % of inhibition [7] of 14.5%.
CN(C(=O)c1cnn2cccnc12)c1cc2c(cc1N1CCOCC1)C(=O)N(C[C@@H](F)C(C)(C)O)C2 was tested, and the dTM [8] was -0.3 K.
COc1cc(Nc2nc(C)cc(-c3cnn4nc(OC)ccc34)n2)cc(C(F)(F)F)c1 showed a % of control [9] of 72%.
CC(C)(O)[C@H](F)CN1Cc2cc(NC(=O)c3cnn4cccnc34)c(N3CCOCC3)cc2C1=O gave a dTM [10] of 0.2 K.
Work on COc1cc(N(C)c2ccnc3ccc(C(F)(F)F)cc23)cc(OC)c1OC yielded a % binding [11] of 100%.
Work on Cn1cc(Nc2nccc(N3CC4CCC(C3)N4C(=O)[C@@H]3CC3(F)F)n2)cn1 yielded a % of inhibition [12] of 59%.
O[C@H]1CC[C@H](Nc2ncc3nc(Nc4c(F)cc(F)cc4F)n([C@H]4CCOC4)c3n2)CC1 gave a % of control [13] of 90%, a % of control [14] of 100% and a % of control [15] of 90%.
In the case of N#Cc1cccc(-c2c[nH]c3ncnc(N4CCOCC4)c23)c1, the % of inhibition [16] is reported as -7%.
